Measured values published in article PMC3335016, “Analysis of the Nse3/MAGE-Binding Domain of the Nse4/EID Family Proteins” (PLoS ONE, 2012).
Where no end group is shown, it is not given here. The star is where a group is joined. Biotin = O=C1N[C@H]2[C@H](CS[C@H]2CCCCC(=O)*)N1

T1: His-S-MAGEC2(129-339) (human, UniProt Q9UBF1 129-339)
T1 construct: source: E. coli C41, purified (His-TRAP column, FPLC)
T1 sequence (looked up): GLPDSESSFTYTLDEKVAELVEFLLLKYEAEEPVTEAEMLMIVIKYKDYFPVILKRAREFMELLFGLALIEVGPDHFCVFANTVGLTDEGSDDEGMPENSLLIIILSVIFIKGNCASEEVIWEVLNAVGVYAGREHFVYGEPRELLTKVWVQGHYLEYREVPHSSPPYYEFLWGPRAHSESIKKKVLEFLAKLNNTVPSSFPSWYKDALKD


Legend:
MAGEC2(129-339) protein = test: PEPSCAN ELISA of EID2 mutant peptides; type: binding, human; details: His-S-MAGEC2(129-339) 200-400 nM, 450 nm; for binding affinity to MAGEC2 relative to wild-type peptide: biotinylated peptide 400 nM on streptavidin-coated plates, 4°C overnight, anti-His/peroxidase, TMB, mean of 3 independent measurements, background = His-hTRF2 control; for binding affinity to MAGEC2 compared with wild-type peptide (in words): biotinylated peptide 400 nM, 3 independent measurements
Procedure: A peptide library of the alanine mutant peptides (Table 1) of the aa 197-217 region of the human EID2 protein was obtained from Mimotopes (Australia). The library was linked to biotin via an additional peptide spacer of serine–glycine–serine–glycine. Each well on ELISA 96-well plates was coated with 100 µl of 5 µg/ml streptavidin (Sigma), incubated overnight at 37°C and then blocked with 3% bovine serum albumin (BSA) in PBS for 2 h at room temperature. The biotinylated peptides (400 nM, in PBS with 0.1% BSA) were applied into wells to saturate their surface and incubated at room temperature for 1 h. The plates were washed three times with 0.1% Tween 20 in PBS and then His-S-MAGEC2(129-339) protein was added (200–400 nM). Plates were incubated at 4°C overnight before washing (as above) to remove unbound protein. First anti-His antibody (Sigma; diluted 1/1000 in PBS with 1% BSA) was incubated for 2 h, washed three times and secondary peroxidase-conjugated rabbit-antiserum against mouse immunoglobulins (DAKO; diluted 1/1000 in PBS with 1% BSA) was added for 1 h (at 4°C). Peroxidase enzyme activity was measured with tetramethylbenzidine and the results were monitored using an automatic ELISA plate reader at a wavelength 450 nm.

necdin (aa 1-321) = test: Pull-down of biotin-tagged EID2 peptides on streptavidin-agarose beads; type: binding, human; details: in vitro translated necdin, 2 h at 4°C in PBS, SDS-PAGE, phosphorimaging
Procedure: Biotin-tagged EID2 peptides were preincubated overnight with streptavidin-agarose beads (Thermo Scientfic) at 4°C. The beads were washed 2 times with 0.1% Tween 20 in PBS buffer, then in vitro-expressed proteins in a total volume of 200 µl PBS buffer were added and incubated for 2 h at 4°C. The beads were washed 4 times with 0.1% Tween 20 in PBS buffer and the bound proteins were eluted in SDS sample buffer and boiled. Input, unbound, and bound fractions of the in vitro expressed proteins were separated by SDS-PAGE and analyzed by phosphorimaging (FLA-7000, Fujifilm). The bound fractions were analyzed by dot blotting to ensure equal EID2 peptide levels were used in pull down assays (data not shown).

His-S-MAGEC2(129-339) = target: T1, His-S-MAGEC2(129-339); test: ELISA; PEPSCAN ELISA; biotinylated EID2 peptides (400 nM) on streptavidin-coated plates; His-S-MAGEC2(129-339) 200–400 nM, 4°C overnight; anti-His detection; details: both partners purified

Row | binding affinity to MAGEC2 relative to wild-type peptide (MAGEC2(129-339) protein) | binding result (His-S-MAGEC2(129-339)) | Molecule | also measured
1 | ~30 % of WT affinity |  | ARNPHRVDLDILTFTIALTAS [peptide #1, EID2 alanine mutant peptide Q197A] | binding affinity to MAGEC2 compared with wild-type peptide (in words) (MAGEC2(129-339) protein): significantly reduced; binding of necdin to peptide (pull-down, in words) (necdin (aa 1-321)): comparable to the wild-type peptide
2 | ~30 % of WT affinity |  | QRNPHRVDLDILTFTIALAAS [peptide #18, EID2 alanine mutant peptide T215A] | 
3 | ~30 % of WT affinity |  | QRNPHRVDLDALTFTIALTAS [peptide #11, EID2 alanine mutant peptide I207A] | 
4 | ~30 % of WT affinity |  | QRNPHRVDLAILTFTIALTAS [peptide #10, EID2 alanine mutant peptide D206A] | 
5 | < 20 % of WT affinity |  | QRNPHRVDLDILTFTIAATAS [peptide #17, EID2 alanine mutant peptide L214A] | 
6 |  |  | QRNPHRVALDILTFTIALTAS [peptide #8, EID2 alanine mutant peptide D204A] | binding affinity to MAGEC2 compared with wild-type peptide (in words) (MAGEC2(129-339) protein): comparable to that of the wild-type peptide
7 | < 20 % of WT affinity |  | QRNPHRVDLDILTFTAALTAS [peptide #16, EID2 alanine mutant peptide I212A] | binding of necdin to peptide (pull-down, in words) (necdin (aa 1-321)): significantly reduced
8 | < 20 % of WT affinity |  | QANPHRVDLDILTFTIALTAS [peptide #2, EID2 alanine mutant peptide R198A] | binding affinity to MAGEC2 compared with wild-type peptide (in words) (MAGEC2(129-339) protein): significantly reduced; binding of necdin to peptide (pull-down, in words) (necdin (aa 1-321)): comparable to the wild-type peptide
9 | < 20 % of WT affinity |  | QRNPHRVDLDILTATIALTAS [peptide #14, EID2 alanine mutant peptide F210A] | binding of necdin to peptide (pull-down, in words) (necdin (aa 1-321)): significantly reduced
10 |  | binds | Biotin-SGSGQRNAHRVDLDILTFTIALTAS (source: synthetic peptide (Mimotopes)) [EID2 peptide #4] | 
11 |  | binds | Biotin-SGSGQRNPHRVDLDILTFAIALTAS (source: synthetic peptide (Mimotopes)) [EID2 peptide #15] | 
12 |  | binds | Biotin-SGSGQRNPHRVDLDILTFTIALTAS (also called wild-type peptide; long EID2 peptide; source: synthetic peptide (Mimotopes); not shown: biotin-SGSG spacer, N-terminal, kept) [EID2 WT peptide (aa 197-217)] | 
13 |  | binds | Biotin-SGSGQRNPHRVDLDILAFTIALTAS (source: synthetic peptide (Mimotopes)) [EID2 peptide #13] | 
14 |  | binds | Biotin-SGSGQRAPHRVDLDILTFTIALTAS (source: synthetic peptide (Mimotopes)) [EID2 peptide #3] | 
15 |  | binds | Biotin-SGSGQRNPHRVALDILTFTIALTAS (source: synthetic peptide (Mimotopes)) [EID2 peptide #8 (D204A)] | 
16 |  | binds | Biotin-SGSGQRNPHRADLDILTFTIALTAS (source: synthetic peptide (Mimotopes)) [EID2 peptide #7] | 
17 |  | binds | Biotin-SGSGQRNPARVDLDILTFTIALTAS (source: synthetic peptide (Mimotopes)) [EID2 peptide #5] | 

Row | Molecule | binding affinity to MAGEC2 relative to wild-type peptide (MAGEC2(129-339) protein) | binding result (His-S-MAGEC2(129-339)) | also measured
18 | QRNPHAVDLDILTFTIALTAS [peptide #6, EID2 alanine mutant peptide R202A] | < 20 % of WT affinity |  | 
19 | QRNPHRVDLDIATFTIALTAS [peptide #12, EID2 alanine mutant peptide L208A] | ~30 % of WT affinity |  | 
20 | QRNPHRVDLDILTFTIALTAA [peptide #19, EID2 alanine mutant peptide S217A] | ~30 % of WT affinity |  | 
21 | QRNPHRVDADILTFTIALTAS [peptide #9, EID2 alanine mutant peptide L205A] | ~30 % of WT affinity |  | 
